# Test results: ChEMBL document CHEMBL4321794, “Discovery and Optimization of 2-Arylquinazolin-4-ones into a Potent and Selective Tankyrase Inhibitor Modulating Wnt Pathway Activity” (J Med Chem, 2019)
# Assays:
# [1] = target: T1, Poly [ADP-ribose] polymerase tankyrase-1 (Homo sapiens, UniProt O95271); test: biochemical
# T1 sequence (O95271 whole entry): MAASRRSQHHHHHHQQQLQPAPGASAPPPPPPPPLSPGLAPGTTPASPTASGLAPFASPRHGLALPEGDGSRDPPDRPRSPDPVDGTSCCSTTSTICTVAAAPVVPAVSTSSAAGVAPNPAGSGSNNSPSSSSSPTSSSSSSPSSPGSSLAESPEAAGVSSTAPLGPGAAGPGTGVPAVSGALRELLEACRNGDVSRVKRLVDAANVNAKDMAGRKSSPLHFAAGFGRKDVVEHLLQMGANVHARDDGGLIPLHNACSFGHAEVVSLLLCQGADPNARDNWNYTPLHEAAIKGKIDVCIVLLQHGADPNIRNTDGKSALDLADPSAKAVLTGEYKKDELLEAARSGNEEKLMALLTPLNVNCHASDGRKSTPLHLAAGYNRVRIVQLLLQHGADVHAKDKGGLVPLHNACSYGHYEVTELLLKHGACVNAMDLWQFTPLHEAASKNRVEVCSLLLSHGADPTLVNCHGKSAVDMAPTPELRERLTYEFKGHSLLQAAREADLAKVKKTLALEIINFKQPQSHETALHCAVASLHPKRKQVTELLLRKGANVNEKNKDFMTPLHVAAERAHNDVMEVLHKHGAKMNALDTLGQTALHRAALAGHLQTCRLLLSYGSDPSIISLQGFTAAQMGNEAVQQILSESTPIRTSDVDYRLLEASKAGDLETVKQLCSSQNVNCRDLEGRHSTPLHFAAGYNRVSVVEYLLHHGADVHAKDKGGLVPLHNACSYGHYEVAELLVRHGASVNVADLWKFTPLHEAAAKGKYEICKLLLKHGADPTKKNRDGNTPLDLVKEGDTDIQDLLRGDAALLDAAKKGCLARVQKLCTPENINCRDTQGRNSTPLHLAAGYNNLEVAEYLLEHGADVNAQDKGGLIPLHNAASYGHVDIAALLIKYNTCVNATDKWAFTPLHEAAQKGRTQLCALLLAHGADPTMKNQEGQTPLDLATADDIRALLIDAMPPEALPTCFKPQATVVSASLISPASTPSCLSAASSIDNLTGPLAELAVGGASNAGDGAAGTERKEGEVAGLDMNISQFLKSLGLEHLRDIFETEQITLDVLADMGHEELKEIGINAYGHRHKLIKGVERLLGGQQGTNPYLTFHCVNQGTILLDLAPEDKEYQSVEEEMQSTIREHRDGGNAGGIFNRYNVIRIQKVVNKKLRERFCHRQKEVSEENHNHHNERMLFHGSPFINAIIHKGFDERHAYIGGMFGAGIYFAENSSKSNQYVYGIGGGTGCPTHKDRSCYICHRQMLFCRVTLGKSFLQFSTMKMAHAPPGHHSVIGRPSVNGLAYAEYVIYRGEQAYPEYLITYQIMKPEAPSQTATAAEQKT
# Description: Inhibition of GST tagged-TEV cleavage site-fused human recombinant TNKS1 (1023 to 1327 residues) expressed in baculovirus infected Sf9 cells assessed as reduction in auto-PARsylation incubated for 90 mins in presence of bio-NAD as co-substrate by TR-FRET assay
# [2] = target: T2, Poly [ADP-ribose] polymerase tankyrase-2 (Homo sapiens, UniProt Q9H2K2); test: biochemical
# T2 sequence (Q9H2K2 whole entry): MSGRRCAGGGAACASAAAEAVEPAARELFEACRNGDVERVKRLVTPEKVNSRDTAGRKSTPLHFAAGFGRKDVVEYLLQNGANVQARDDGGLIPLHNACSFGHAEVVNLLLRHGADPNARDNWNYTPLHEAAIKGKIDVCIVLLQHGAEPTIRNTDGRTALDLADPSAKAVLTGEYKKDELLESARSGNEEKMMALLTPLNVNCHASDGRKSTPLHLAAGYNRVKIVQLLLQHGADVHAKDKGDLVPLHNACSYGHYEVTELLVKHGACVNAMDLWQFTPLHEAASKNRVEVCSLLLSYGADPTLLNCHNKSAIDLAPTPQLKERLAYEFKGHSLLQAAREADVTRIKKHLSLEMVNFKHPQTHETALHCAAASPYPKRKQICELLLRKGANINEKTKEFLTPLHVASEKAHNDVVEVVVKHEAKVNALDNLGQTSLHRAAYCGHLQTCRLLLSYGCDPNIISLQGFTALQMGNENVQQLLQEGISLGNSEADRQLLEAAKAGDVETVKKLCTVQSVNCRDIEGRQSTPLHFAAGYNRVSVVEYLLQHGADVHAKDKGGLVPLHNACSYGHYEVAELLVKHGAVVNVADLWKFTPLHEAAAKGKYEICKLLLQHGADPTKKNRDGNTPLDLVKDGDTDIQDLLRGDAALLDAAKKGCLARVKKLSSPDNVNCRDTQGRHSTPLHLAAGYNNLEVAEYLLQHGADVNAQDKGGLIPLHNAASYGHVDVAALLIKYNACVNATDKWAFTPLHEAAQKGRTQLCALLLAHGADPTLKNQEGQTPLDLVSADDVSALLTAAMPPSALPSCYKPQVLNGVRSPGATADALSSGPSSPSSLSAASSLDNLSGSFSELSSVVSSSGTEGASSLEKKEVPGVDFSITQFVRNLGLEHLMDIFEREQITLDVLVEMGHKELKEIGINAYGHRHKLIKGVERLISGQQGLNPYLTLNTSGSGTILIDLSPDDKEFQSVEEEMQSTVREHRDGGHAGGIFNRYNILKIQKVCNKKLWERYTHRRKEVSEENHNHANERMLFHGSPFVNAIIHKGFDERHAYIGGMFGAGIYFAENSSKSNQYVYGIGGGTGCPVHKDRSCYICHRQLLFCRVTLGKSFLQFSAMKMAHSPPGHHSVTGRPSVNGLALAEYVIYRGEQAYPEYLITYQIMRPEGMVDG
# Description: Inhibition of GST tagged-TEV cleavage site-fused human recombinant TNKS2 (873 to 1166 residues) expressed in baculovirus infected Sf9 cells assessed as reduction in auto-PARsylation incubated for 90 mins in presence of bio-NAD as co-substrate by TR-FRET assay
# [3] = Intrinsic clearance in human liver microsomes assessed per mg protein in presence of NADPH by UPLC analysis; format: ADME, Microsome; settings: read-out: CLH
# [4] = target: T3, Tankyrase 1/2 (Homo sapiens, UniProt Q9H2K2+O95271)
# T3 sequence (Q9H2K2 whole entry): T2 sequence (Q9H2K2 whole entry)
# T3 sequence (O95271 whole entry): T1 sequence (O95271 whole entry)
# Description: Inhibition of tankyrase 1/2 in human DLD1 cells assessed as increase in axin2 accumulation incubated for 24 hrs by luminex based bead assay
# [5] = Thermodynamic solubility in phosphate buffer at pH 7.4 at 2 mg incubated under shaking condition for 6 hrs followed by rechecking and readjusting pH to 7.4 and further incubated for 18 hrs by HPLC/UV detection method; format: physicochemical; settings: read-out: Therm_solubility
# [6] = Intrinsic clearance in mouse liver microsomes assessed per mg protein in presence of NADPH by UPLC analysis; format: ADME, Microsome; settings: read-out: CLH
# [7] = target: T4, Poly [ADP-ribose] polymerase 1 (Homo sapiens, UniProt P09874); test: (§1) Inhibition of recombinant human full-length Myc/His-tagged Parp-1 expressed in baculovirus infected Sf21 insect cells assessed as reduction in auto-PARsylation using activated DNA as substrate incubated for 150 mins in presence of NAD and bio-NAD as co-substrate by TR-FRET assay
# T4 sequence (P09874 whole entry): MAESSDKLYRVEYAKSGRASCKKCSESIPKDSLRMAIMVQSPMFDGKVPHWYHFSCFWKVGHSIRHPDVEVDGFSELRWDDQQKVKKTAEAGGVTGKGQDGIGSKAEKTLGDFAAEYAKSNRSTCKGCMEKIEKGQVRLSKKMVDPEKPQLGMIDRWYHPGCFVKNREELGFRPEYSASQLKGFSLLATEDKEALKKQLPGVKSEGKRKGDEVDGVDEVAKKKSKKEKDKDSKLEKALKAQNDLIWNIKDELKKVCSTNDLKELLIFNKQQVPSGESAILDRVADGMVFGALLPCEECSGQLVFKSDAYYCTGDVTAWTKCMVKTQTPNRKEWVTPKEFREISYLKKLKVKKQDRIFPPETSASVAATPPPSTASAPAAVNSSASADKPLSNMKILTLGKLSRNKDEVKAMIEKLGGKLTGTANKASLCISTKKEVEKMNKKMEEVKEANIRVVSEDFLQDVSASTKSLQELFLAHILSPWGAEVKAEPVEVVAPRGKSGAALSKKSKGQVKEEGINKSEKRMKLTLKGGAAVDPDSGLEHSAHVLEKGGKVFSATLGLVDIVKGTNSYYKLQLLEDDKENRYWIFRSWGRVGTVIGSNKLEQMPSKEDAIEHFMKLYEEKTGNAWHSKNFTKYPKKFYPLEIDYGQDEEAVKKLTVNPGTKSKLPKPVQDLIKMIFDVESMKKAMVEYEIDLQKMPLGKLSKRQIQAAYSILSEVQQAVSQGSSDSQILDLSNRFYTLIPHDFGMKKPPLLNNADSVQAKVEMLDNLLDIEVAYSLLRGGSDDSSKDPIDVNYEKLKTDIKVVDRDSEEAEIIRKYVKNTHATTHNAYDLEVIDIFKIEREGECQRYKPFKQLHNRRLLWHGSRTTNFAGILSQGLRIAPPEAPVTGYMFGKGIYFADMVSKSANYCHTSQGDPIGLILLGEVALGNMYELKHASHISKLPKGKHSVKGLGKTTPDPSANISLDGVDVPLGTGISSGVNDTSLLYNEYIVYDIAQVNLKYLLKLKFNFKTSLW
# [8] = target: T1, Poly [ADP-ribose] polymerase tankyrase-1; set-up: species or system Sf9
# [9] = target: T2, Poly [ADP-ribose] polymerase tankyrase-2; test: biochemical; remark: listed apart in the source
# Description: Inhibition of GST tagged-TEV cleavage site-fused human recombinant TNKS2 (873 to 1166 residues) expressed in baculovirus infected sf9 cells assessed as reduction in auto-PARsylation incubated for 60 mins in presence of bio-NAD as co-substrate by ELISA
# [10] = target: T4, Poly [ADP-ribose] polymerase 1; test: as §1, with “auto-PARsylation at 10 uM” for “auto-PARsylation”, “assay relative to control” for “assay”
SMILES,IC50 [1],IC50 [2],microsomal CLint [3],EC50 [4],solubility thermodynamic at 24 h [5],microsomal CLint [6],IC50 [7],IC50 [8],IC50 [9],inhibition [10]
O=c1[nH]c(-c2ccc3c(c2)OCO3)nc2ccccc12,430 nM,620 nM,83 µL/min/mg,> 30000 nM,1 µg/mL,346 µL/min/mg,1700 nM,,,
CC(C)(C)c1ccc(-c2nc3ccc(F)cc3c(=O)[nH]2)cc1,,,70 µL/min/mg,,< 1 µg/mL,> 1000 µL/min/mg,3900 nM,3.3 nM,,
CN1CCN(c2ccc(-c3nc4ccc(F)cc4c(=O)[nH]3)cc2)CC1,,,< 10 µL/min/mg,,6 µg/mL,44 µL/min/mg,370 nM,12 nM,,
CC(C)(O)c1ccc(-c2nc3cccc(F)c3c(=O)[nH]2)cc1,,,< 10 µL/min/mg,,20 µg/mL,11 µL/min/mg,830 nM,17 nM,,
CC(C)(O)c1ccc(-c2nc3c(F)ccc(F)c3c(=O)[nH]2)cc1,,,< 10 µL/min/mg,,5 µg/mL,< 10 µL/min/mg,1300 nM,26 nM,,
Cc1cc(F)cc2c(=O)[nH]c(-c3ccc(C4CCN(C)CC4)cc3)nc12,,,< 10 µL/min/mg,50 nM,5 µg/mL,422 µL/min/mg,620 nM,2.2 nM,2.2 nM,
CC(C)(OCCO)c1ccc(-c2nc3ccc(F)cc3c(=O)[nH]2)cc1,,,< 10 µL/min/mg,,23 µg/mL,32 µL/min/mg,2300 nM,10 nM,,
CC(C)(O)c1ccc(-c2nc3ccc(F)cc3c(=O)[nH]2)cc1,,,< 10 µL/min/mg,,29 µg/mL,25 µL/min/mg,349 nM,12.5 nM,,
COc1ccc(-c2nc3ccccc3c(=O)[nH]2)cc1,,,217 µL/min/mg,,4 µg/mL,630 µL/min/mg,,,,
Cc1cccc2c(=O)[nH]c(-c3ccc(C(C)(C)O)cc3)nc12,,,< 10 µL/min/mg,,4 µg/mL,81 µL/min/mg,79 nM,1.2 nM,,
Cl.O=c1[nH]c(-c2ccc(C3CCNCC3)cc2)nc2c(F)cc(F)cc12,,,< 10 µL/min/mg,,57 µg/mL,< 10 µL/min/mg,,15 nM,,
CC(C)(O)c1ccc(-c2nc3ccccc3c(=O)[nH]2)cc1,,,15 µL/min/mg,1300 nM,38 µg/mL,46 µL/min/mg,910 nM,15 nM,13 nM,
COCCOC(C)(C)c1ccc(-c2nc3ccc(F)cc3c(=O)[nH]2)cc1,,,41 µL/min/mg,,6 µg/mL,126 µL/min/mg,5700 nM,24 nM,,
CC(C)(O)c1ccc(-c2nc3ccc(F)c(F)c3c(=O)[nH]2)cc1,,,< 10 µL/min/mg,,25 µg/mL,23 µL/min/mg,512 nM,7 nM,,
CC(C)(C)c1ccc(-c2nc3ccccc3c(=O)[nH]2)cc1,,,19 µL/min/mg,1500 nM,< 1 µg/mL,< 10 µL/min/mg,> 10000 nM,7.9 nM,8.7 nM,35%
CC(C)(O)c1ccc(-c2nc3c(Cl)cccc3c(=O)[nH]2)cc1,,,23 µL/min/mg,,,49 µL/min/mg,410 nM,11 nM,,
CC(C)(O)c1ccc(-c2nc3ccc(F)cc3c(=O)[nH]2)nc1,,,15 µL/min/mg,,,< 10 µL/min/mg,2500 nM,1000 nM,,
CC(C)(O)c1ccc(-c2nc3c(F)cccc3c(=O)[nH]2)cc1,,,< 10 µL/min/mg,,15 µg/mL,26 µL/min/mg,1100 nM,14 nM,,
Cc1cc(F)cc2c(=O)[nH]c(-c3ccc(C(C)(C)O)cc3)nc12,,,< 10 µL/min/mg,,1 µg/mL,180 µL/min/mg,60 nM,0.8 nM,,
CC(C)(O)c1ccc(-c2nc3cccc(Cl)c3c(=O)[nH]2)cc1,,,,,,,4300 nM,35 nM,,
COc1cccc2c(=O)[nH]c(-c3ccc(C(C)(C)O)cc3)nc12,,,12 µL/min/mg,,153 µg/mL,45 µL/min/mg,630 nM,35 nM,,
Cc1cc(F)cc2c(=O)[nH]c(-c3ccc(C(C)(C)OCCO)cc3)nc12,,,37 µL/min/mg,,,180 µL/min/mg,790 nM,1.6 nM,,
CC(C)(O)c1ccc(-c2nc3ccc(Cl)cc3c(=O)[nH]2)cc1,,,,,,,1400 nM,23 nM,,
Cc1cc(F)cc2c(=O)[nH]c(-c3ccc(N4CCN(C)CC4)cc3)nc12,,,14 µL/min/mg,,4 µg/mL,138 µL/min/mg,120 nM,1.5 nM,,
CN1CCC(c2ccc(-c3nc4c(F)cc(F)cc4c(=O)[nH]3)cc2)CC1.O=C(O)C(F)(F)F,,,< 10 µL/min/mg,3900 nM,65 µg/mL,39 µL/min/mg,3700 nM,31 nM,31 nM,
